In ChEMBL document CHEMBL1201862, “PubChem BioAssay data set” (2004):
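These data come from cells grown in 96-well plates and exposed to compound for 48 hours at five concentrations. At the GI50, growth is halved.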 The source made the active and inactive calls. No stated cut-off is given here; in the data, active = GI50 up to about 1.1 µM and inactive = higher.

Tests used:
Assay in all cases: DTP human tumour cell line panel, 48 h
786-0 = tested on: 786-0
A549 = tested on: A549
CCRF-CEM = tested on: CCRF-CEM
DMS-114 = tested on: DMS-114
IGROV-1 = tested on: IGROV-1
M14 = tested on: M14
Malme-3M = tested on: Malme-3M
NCI-H226 = tested on: NCI-H226
SK-MEL-28 = tested on: SK-MEL-28
SK-MEL-2 = tested on: SK-MEL-2
SK-MEL-5 = tested on: SK-MEL-5
SW-620 = tested on: SW-620
UACC-62 = tested on: UACC-62
A498 = tested on: A498
ACHN = tested on: ACHN
SN12C = tested on: SN12C
SNB-19 = tested on: SNB-19
DU-145 = tested on: DU-145
MDA-MB-435 = tested on: MDA-MB-435
T47D = tested on: T47D

Structure (SMILES) | GI50 (786-0) | GI50 (A549) | GI50 (CCRF-CEM) | GI50 (DMS-114) | GI50 (IGROV-1) | GI50 (M14) | GI50 (Malme-3M) | GI50 (NCI-H226) | GI50 (SK-MEL-28) | GI50 (SK-MEL-2) | GI50 (SK-MEL-5) | GI50 (SW-620) | GI50 (UACC-62) | GI50 (A498) | GI50 (ACHN) | GI50 (SN12C) | GI50 (SNB-19) | GI50 (DU-145) | GI50 (MDA-MB-435) | GI50 (T47D)
C/C(CC(=O)Nc1cccc([N+](=O)[O-])c1)=N\NC(=O)CC#N | > 100 µM (inactive) | > 100 µM (inactive) | > 100 µM (inactive) | > 100 µM (inactive) | > 100 µM (inactive) | > 100 µM (inactive) | > 100 µM (inactive) | > 100 µM (inactive) | > 100 µM (inactive) | > 100 µM (inactive) | > 100 µM (inactive) | > 100 µM (inactive) | > 100 µM (inactive) | – | – | – | – | – | – | –
COC(=O)C1(c2ccc(OC)cc2)NC(c2ccccc2)C2C(=O)N(c3ccc(OC)cc3)C(=O)C21 (centres undefined) | > 100 µM (inactive) | > 100 µM (inactive) | > 100 µM (inactive) | > 100 µM (inactive) | > 100 µM (inactive) | > 100 µM (inactive) | > 100 µM (inactive) | – | > 100 µM (inactive) | > 100 µM (inactive) | > 100 µM (inactive) | > 100 µM (inactive) | > 100 µM (inactive) | > 100 µM (inactive) | > 100 µM (inactive) | > 100 µM (inactive) | > 100 µM (inactive) | – | – | –
CC(=O)c1c2c(cc3c1CC1(C3)Cc3cc4c(c(C(=O)O)c3C1)CCC4)CCC2 (centres undefined) | 47.2 µM (inactive) | 30.8 µM (inactive) | 27.7 µM (inactive) | 36.3 µM (inactive) | 50.7 µM (inactive) | 41.2 µM (inactive) | 29.4 µM (inactive) | – | 44.5 µM (inactive) | – | 35.7 µM (inactive) | 48.6 µM (inactive) | 28.6 µM (inactive) | – | 35.9 µM (inactive) | 31.4 µM (inactive) | 45.3 µM (inactive) | – | – | –
CC(=O)Oc1cc(Cl)c(OC(C)=O)c2c(OC(C)=O)c(C)c(O[Si](C)(C)C(C)(C)C)cc12 | 14.9 µM (inactive) | 5.3 µM (inactive) | 2.54 µM (inactive) | 3 µM (inactive) | 3.64 µM (inactive) | 5.7 µM (inactive) | – | – | 3.05 µM (inactive) | 17.9 µM (inactive) | 4.41 µM (inactive) | 2.8 µM (inactive) | – | 2.09 µM (inactive) | – | 11.1 µM (inactive) | 12.8 µM (inactive) | – | – | –
CC(=O)CC(=O)ON(C)C(=O)Cc1ccccc1 | > 100 µM (inactive) | > 100 µM (inactive) | > 100 µM (inactive) | > 100 µM (inactive) | > 100 µM (inactive) | > 100 µM (inactive) | > 100 µM (inactive) | > 100 µM (inactive) | > 100 µM (inactive) | – | > 100 µM (inactive) | > 100 µM (inactive) | > 100 µM (inactive) | – | > 100 µM (inactive) | > 100 µM (inactive) | > 100 µM (inactive) | – | – | –
COc1cccc(OC)c1C(=O)OCc1ccccc1 | > 100 µM (inactive) | > 100 µM (inactive) | > 100 µM (inactive) | > 100 µM (inactive) | > 100 µM (inactive) | > 100 µM (inactive) | – | > 100 µM (inactive) | > 100 µM (inactive) | > 100 µM (inactive) | > 100 µM (inactive) | > 100 µM (inactive) | > 100 µM (inactive) | – | > 100 µM (inactive) | > 100 µM (inactive) | – | – | – | –
CC(=O)/C=C1\Nc2ccccc2N\C1=C/C(C)=O | 18.5 µM (inactive) | 21.5 µM (inactive) | 17.2 µM (inactive) | – | 18.8 µM (inactive) | 21.6 µM (inactive) | 23 µM (inactive) | 21.4 µM (inactive) | 41.7 µM (inactive) | 20.6 µM (inactive) | 16.8 µM (inactive) | 35.7 µM (inactive) | 20.1 µM (inactive) | 27.2 µM (inactive) | 22.6 µM (inactive) | 25.7 µM (inactive) | 38.5 µM (inactive) | 30 µM (inactive) | 26.4 µM (inactive) | 19.5 µM (inactive)
Cc1ccsc1/C=N/NC1=NCCN1 | > 100 µM (inactive) | > 100 µM (inactive) | > 100 µM (inactive) | – | > 100 µM (inactive) | > 100 µM (inactive) | > 100 µM (inactive) | > 100 µM (inactive) | > 100 µM (inactive) | > 100 µM (inactive) | > 100 µM (inactive) | > 100 µM (inactive) | > 100 µM (inactive) | > 100 µM (inactive) | > 100 µM (inactive) | > 100 µM (inactive) | > 100 µM (inactive) | > 100 µM (inactive) | > 100 µM (inactive) | > 100 µM (inactive)
CCCCCCCCCCCCOc1ccc(/C=C/C2=[N+](CCCl)CCO2)cc1 | 19.2 µM (inactive) | 65.2 µM (inactive) | 22.8 µM (inactive) | – | 25.4 µM (inactive) | > 100 µM (inactive) | > 100 µM (inactive) | > 100 µM (inactive) | > 100 µM (inactive) | > 100 µM (inactive) | 67 µM (inactive) | > 100 µM (inactive) | 93.3 µM (inactive) | > 100 µM (inactive) | 50.2 µM (inactive) | 77.4 µM (inactive) | > 100 µM (inactive) | > 100 µM (inactive) | 94.2 µM (inactive) | 76.4 µM (inactive)
CC(=O)Oc1c(-c2ccccc2)oc2ccccc12 | 4.02 µM (inactive) | 1.51 µM (inactive) | 1.58 µM (inactive) | – | 2.08 µM (inactive) | 2.02 µM (inactive) | 2.83 µM (inactive) | 2.07 µM (inactive) | 2.38 µM (inactive) | 1.8 µM (inactive) | 1.35 µM (inactive) | 3.1 µM (inactive) | 3.13 µM (inactive) | 2.96 µM (inactive) | 1.79 µM (inactive) | 2.19 µM (inactive) | 1.53 µM (inactive) | 3.96 µM (inactive) | 2.43 µM (inactive) | 1.98 µM (inactive)
Cc1c2ccccc2c(CSC(=N)N)c2ccccc12 | 0.143 µM (active) | 0.216 µM (active) | 0.0203 µM (active) | – | 0.312 µM (active) | 0.211 µM (active) | 0.149 µM (active) | 0.247 µM (active) | 0.27 µM (active) | 0.192 µM (active) | 0.162 µM (active) | 0.121 µM (active) | 0.181 µM (active) | 0.19 µM (active) | 0.0728 µM (active) | 0.152 µM (active) | 0.228 µM (active) | 0.084 µM (active) | 0.181 µM (active) | 0.535 µM (active)
CC(C)N(Cc1ccccc1)S(=O)(=O)c1nc(C(C)(C)C)n[nH]1 | > 100 µM (inactive) | > 100 µM (inactive) | > 100 µM (inactive) | – | > 100 µM (inactive) | > 100 µM (inactive) | > 100 µM (inactive) | > 100 µM (inactive) | > 100 µM (inactive) | > 100 µM (inactive) | > 100 µM (inactive) | > 100 µM (inactive) | > 100 µM (inactive) | > 100 µM (inactive) | > 100 µM (inactive) | > 100 µM (inactive) | > 100 µM (inactive) | > 100 µM (inactive) | > 100 µM (inactive) | 92 µM (inactive)
